In patent US20150344485A1, “BICYCLIC PYRIMIDONE COMPOUNDS AS INHIBITORS OF LP-PLA2” (GLAXOSMITHKLINE INTELLECTUAL PROPERTY DEVELOPMENT LIMITED, priority 2013, published 2015):

Assays:
[1] = tested on: proinflammatory (M1) and anti-inflammatory (M2) markers; experiment: Ex vivo analysis of M1 and M2 markers in macrophages of EAE rats by realtime PCR; design: species or system rat; settings: splenic macrophages day 13 post MBP-immunization and CNS infiltrating macrophages
Method: Ex vivo analysis of proinflammatory (M1) and anti-inflammatory (M2) markers in control and compound treated EAE rats. Splenic macrophages were harvested at day 13 post MBP-immunization and assayed for expression of a variety of markers by realtime PCR. CNS infiltrating cells were harvested and macrophages were analyzed for expression of M1 and M2 markers by realtime PCR.

[2] = tested on: experimental autoimmune encephalomyelitis (EAE); experiment: Rat experimental autoimmune encephalomyelitis (EAE) model, preventive treatment; assay type: in vivo
Method: A further study was carried out to study the impact of Lp-PLA2 inhibitors on modulating M1/M2 imbalance. In this study, rats were induced to develop experimental autoimmune encephalomyelitis (EAE) by immunization with myelin basic protein (MBP) antigen and treated with a known Lp-PLA2 inhibitor: 5-((9-Methoxy-4-oxo-6,7-dihydro-4H-pyrimido[6,1-a]isoquinolin-2-yl)oxy)-2-(3-(trifluoromethyl)phenoxy)benzonitrile (See PCT application no. PCT/CN2011/001597). In this preventive treatment model, the compound was administered at day 0 (day of immunization) and continued to administer until day 22. The study lasted for 25 days. Rats were subsequently monitored for symptoms of EAE. Rats were immunized with MBP to develop EAE and symptoms were monitored daily. Plasma Lp-PLA2 activity, OxLDL, and LysoPC concentration were determined at different time points through the course of EAE.

COc1ccc2c(c1)CCn1c-2cc(Oc2ccc(Oc3cccc(C(F)(F)F)c3)c(C#N)c2)nc1=O [5-((9-Methoxy-4-oxo-6,7-dihydro-4H-pyrimido[6,1-a]isoquinolin-2-yl)oxy)-2-(3-(trifluoromethyl)phenoxy)benzonitrile]
M1 markers [1]: decrease
M2 markers [1]: increase
Lp-PLA2 activity in rat EAE plasma ([2]; rat EAE plasma): decreased
LysoPC levels in rat EAE plasma ([2]; rat EAE plasma): decreased
clinical disease ([2]; rat EAE, administered day 0 until day 22): reduction in clinical disease
